Results as given in US9562082B2, “Production of glycoproteins with low N-glycolylneuraminic acid (Neu5Gc) content” (LEK Pharmaceuticals D.D., priority 2009, dated 2017).

Tests used:
Assay type in all cases: cell-based, Chinese hamster
[1] = tested on: Recombinant CHO cells; test: Specific growth rate; conditions: DMSO 0.75, temperature 37
Description: The specific growth rate was calculated following Equation 2 and represents the overall biomass accumulation under the growth curve from the beginning to the end of the batch process (expressed as a logarithmic value per day (day^−1)). Specific growth rate=ln(X2/X1)/(t2−t1) Equation 2 (X1 is the number of viable cells on day 0 and X2 the number of cells at the end of the repeated batches, respectively. t1 is time 0, and t2 is time 7 or the end day of the process, respectively.)

[2] = tested on: Recombinant CHO cells; test: Content of the most acidic isoforms 7 and 8 (degree of sialylation) of secreted glycoprotein by AEX; conditions: for percentage of the most acidic isoforms: 0.75% (w/v) DMSO
Description: Throughout the entire description, above and below and including the examples, unless explicitly stated otherwise, the degree of sialylation is given in % (w/w) and was calculated as follows. Since the inventor had not available a method to directly measure the degree of sialylation (%, w/w), she estimated same indirectly from the relative content of the most acidic isoforms of each glycoprotein. Since isoforms 7 and 8 (see next paragraph) are the most acidic ones, she figured out that an increase of isoforms 7 and 8 is an indicator for the increased degree of sialylation. The inventor measured the distribution of the isoforms of a particular glycoprotein (e.g., of darbepoetin alfa, which is a cytokine) with AEX (anion exchange chromatography). AEX is not a quantitative method. Therefore, the inventor split the histogram into three parts as follows: the most basic isoforms 1, 2, and 3, the middle acidic isoforms 4, 5, and 6, and the most acidic isoforms 7 and 8. […] Therefore, the inventor compared, for each glycoprotein tested, the content (%, w/w) of the most acidic isoforms resulting from media without and from media with the additives according to the invention. In case their content increased, the inventor concluded that the degree of sialylation had likewise increased. Therefore, the degree of sialylation in the present application is given as the relative content of the most acidic isoforms (%, w/w). The increase in the degree of sialylation (of a particular glycoprotein obtained from a host cell culture using a medium with the additives according to the present invention vs. that of said glycoprotein obtained from a host cell culture using a medium without the inventive additives) is given on the basis of the increase of the content of the most acidic isoforms (%) after cultivating the host cells in the presence vs. absence of said additives. Recombinant CHO cells expressing high titres of the glycosylated human glycoproteins were cultivated in suspension culture using rich in-house standard medium without additives according to the invention. After 2 weeks of passages, the cells were first harvested and subsequently inoculated into the same medium, however, supplemented with a range of DMSO concentrations from 0.25% to 1.50% (w/v). The effect of DMSO on growth, productivity, degree of sialylation, and Neu5Gc content was studied. “One factor at the time”-experiments with different DMSO concentrations at 37° C. and 33° C., respectively, were performed at first in an attempt to determine the DMSO concentration and temperature which are best to minimise the Neu5Gc content on the glycoproteins secreted. To study the interaction between the parameters (i) DMSO concentration, (ii) time of DMSO addition, and (iii) time of the temperature shift (from 37° C. to 33° C.), further experiments were performed with the Design-Expert/Design-Ease programme (Stat-Ease, Inc., Minneapolis, Minn., USA) using the response surface method. Parameters (i), (ii), and (iii) were chosen as numeric factors and the axial points were set slightly out of already known ranges in order to cover a wide design space. One replicate on axial points, one replicate on factorial points and 4 centre points were performed. The results were analysed using the Design of Expert (DOE) software (Design-Expert, Version 7.1). The results of the shake flask experiments were confirmed in the Biostat®B bioreactor (Sartorius, B. Braun Biotech International, Germany). Exponentially growing cells were taken from cell culture flasks having a surface area of 225 cm^2 (Corning®Costar®). A Biostat®B bioreactor with a working volume of 5 litres was inoculated with 2×10^5 cells/ml. […] Following glycoprotein purification, the isoform distribution of the immuno-affinity purified glycoproteins was determined by anion exchange chromatography (AEX). The chromatographic separation of various isoforms is based on the differences in their charges. […]

[3] = tested on: Recombinant CHO cells; test: Cell viability by trypan blue exclusion; conditions: 8 day batch cultures, all DMSO concentrations, times of addition and temperatures tested
Description: Cell viability was determined by the trypan blue exclusion method. The cell concentration was determined using a Vi-CELL™ Series Cell Viability Analyzer (Beckman Coulter, Fullerton, Calif., USA). Glucose, lactate, glutamine, and ammonia (NH4^+) concentrations were measured during the growth phase using a BioProfile Analyzer for mammalian cell culture (BioProfile 100 plus, Nova Biomedical, Waltham, USA). Additionally, oxygen and […] concentrations were monitored daily using pHOx (Stat Prophile pHOx Basic, Nova Biomedical, Waltham, USA). Secreted glycoprotein concentrations were quantified by enzyme linked immunosorbent assay (ELISA), and the titres were expressed in μg/ml.
Initially, the inventor avoided the addition of DMSO to the cell culture at the beginning of the bioprocess, because […] speculated that such addition might not be optimal, since the cells had no time for an optimal lag phase-growth (adaptation). […] Viable cell density and viability of the cells were measured in the middle and at the end of that period. The final titre (concentration of each glycoprotein in the culture medium) was measured in the supernatants with ELISA. […] The content of Neu5Gc on the purified glycoproteins was determined, and the acidic isoform distribution reflecting the degree of sialylation was measured with AEX.

For `C[S+](C)[O-]` [DMSO, dimethyl sulfoxide], which “Specific growth rate, DOE point prediction” value [1] is on record?
The value was 0.54 day⁻¹.

What about the “average content of the most acidic isoforms, all glycoproteins tested” value (“average content” below) ([2]; 0.5% DMSO) of the same compound?
The value was 1.31%.

And the “average content” value ([2]; 0.75% DMSO)?
The value was 1.28%.

And the “average content” value ([2]; 1% DMSO)?
The value was 1.21%.

What about the “average content” value ([2]; 1.25% DMSO) of the same compound?
Its value is 1.26%.

What about the “Isoforms 7&8, DOE point prediction” value ([2]; DMSO 0.75, temperature 37) of the same compound?
The value was 1.21%.

What about the “percentage of the most acidic isoforms” value ([2]; bioreactor batch process) of the same compound?
The value was “about 2.2%”.

What about the “percentage of the most acidic isoforms” value ([2]; shake flask batch process) of the same compound?
Its value is “about 1.35%”.

What about the final cell viability [3] of the same compound?
Its final cell viability is “above 97.5%”.
